Source: ChEMBL document CHEMBL4177730, “Rational modification of semaxanib and sunitinib for developing a tumor growth inhibitor targeting ATP binding site of tyrosine kinase” (2018)
Activity calls are given as the source filed them.

Key:
Assay type in all cases: functional, cell-based
[1] = tested on: HCT-15; assay: Growth inhibition of human HCT15 cells at 10 uM after 48 hrs by sulforhodamine B assay
[2] = tested on: MCF7; assay: Growth inhibition of human MCF7 cells at 10 uM after 48 hrs by sulforhodamine B assay
[3] = tested on: MDA-MB-468; assay: Growth inhibition of human MDA-MB-468 cells at 10 uM after 48 hrs by sulforhodamine B assay
[4] = tested on: Malme-3M; assay: Growth inhibition of human MALME-3M cells at 10 uM after 48 hrs by sulforhodamine B assay
[5] = tested on: 786-0; assay: Growth inhibition of human 786-0 cells at 10 uM after 48 hrs by sulforhodamine B assay
[6] = tested on: LOX IMVI; assay: Growth inhibition of human LOXIMVI cells at 10 uM after 48 hrs by sulforhodamine B assay
[7] = tested on: OVCAR-8; assay: Growth inhibition of human OVCAR8 cells at 10 uM after 48 hrs by sulforhodamine B assay
[8] = tested on: PC-3; assay: Growth inhibition of human PC3 cells at 10 uM after 48 hrs by sulforhodamine B assay
[9] = tested on: SW-620; assay: Growth inhibition of human SW620 cells at 10 uM after 48 hrs by sulforhodamine B assay
[10] = tested on: HL-60(TB); assay: Growth inhibition of human HL-60(TB) cells at 10 uM after 48 hrs by sulforhodamine B assay
[11] = tested on: HT-29; assay: Growth inhibition of human HT-29 cells at 10 uM after 48 hrs by sulforhodamine B assay
[12] = tested on: U-251; assay: Growth inhibition of human U251 cells at 10 uM after 48 hrs by sulforhodamine B assay
[13] = tested on: CAKI-1; assay: Growth inhibition of human CAKI-1 cells at 10 uM after 48 hrs by sulforhodamine B assay
[14] = tested on: NCI/ADR-RES; assay: Growth inhibition of human NCI-ADR-RES cells at 10 uM after 48 hrs by sulforhodamine B assay
[15] = tested on: NCI-H23; assay: Growth inhibition of human NCI-H23 cells at 10 uM after 48 hrs by sulforhodamine B assay
[16] = tested on: OVCAR-5; assay: Growth inhibition of human OVCAR5 cells at 10 uM after 48 hrs by sulforhodamine B assay
[17] = tested on: SK-MEL-5; assay: Growth inhibition of human SK-MEL-5 cells at 10 uM after 48 hrs by sulforhodamine B assay
[18] = tested on: NCI-H226; assay: Growth inhibition of human NCI-H226 cells at 10 uM after 48 hrs by sulforhodamine B assay
[19] = tested on: SF-295; assay: Growth inhibition of human SF295 cells at 10 uM after 48 hrs by sulforhodamine B assay
[20] = tested on: HCT-116; assay: Growth inhibition of human HCT116 cells at 10 uM after 48 hrs by sulforhodamine B assay
[21] = tested on: OVCAR-4; assay: Growth inhibition of human OVCAR4 cells at 10 uM after 48 hrs by sulforhodamine B assay
[22] = tested on: SK-OV-3; assay: Growth inhibition of human SKOV3 cells at 10 uM after 48 hrs by sulforhodamine B assay
[23] = tested on: MOLT-4; assay: Growth inhibition of human MOLT4 cells at 10 uM after 48 hrs by sulforhodamine B assay
[24] = tested on: BT-549; assay: Growth inhibition of human BT549 cells at 10 uM after 48 hrs by sulforhodamine B assay
[25] = tested on: MDA-MB-231; assay: Growth inhibition of human MDA-MB-231 cells at 10 uM after 48 hrs by sulforhodamine B assay
[26] = tested on: T47D; assay: Growth inhibition of human T47D cells at 10 uM after 48 hrs by sulforhodamine B assay
[27] = tested on: Hs-578T; assay: Growth inhibition of human Hs 578T cells at 10 uM after 48 hrs by sulforhodamine B assay
[28] = tested on: SF-539; assay: Growth inhibition of human SF539 cells at 10 uM after 48 hrs by sulforhodamine B assay
[29] = tested on: ACHN; assay: Growth inhibition of human ACHN cells at 10 uM after 48 hrs by sulforhodamine B assay
[30] = tested on: CCRF-CEM; assay: Growth inhibition of human CCRF-CEM cells at 10 uM after 48 hrs by sulforhodamine B assay
[31] = tested on: NCI-H460; assay: Growth inhibition of human NCI-H460 cells at 10 uM after 48 hrs by sulforhodamine B assay
[32] = tested on: NCI-H322M; assay: Growth inhibition of human NCI-H322M cells at 10 uM after 48 hrs by sulforhodamine B assay
[33] = tested on: SNB-19; assay: Growth inhibition of human SNB19 cells at 10 uM after 48 hrs by sulforhodamine B assay
[34] = tested on: K562; assay: Growth inhibition of human K562 cells at 10 uM after 48 hrs by sulforhodamine B assay
[35] = tested on: EKVX; assay: Growth inhibition of human EKVX cells at 10 uM after 48 hrs by sulforhodamine B assay
[36] = tested on: MDA-MB-435; assay: Growth inhibition of human MDA-MB-435 cells at 10 uM after 48 hrs by sulforhodamine B assay
[37] = tested on: HOP-62; assay: Growth inhibition of human HOP62 cells at 10 uM after 48 hrs by sulforhodamine B assay
[38] = tested on: TK-10; assay: Growth inhibition of human TK10 cells at 10 uM after 48 hrs by sulforhodamine B assay
[39] = tested on: IGROV-1; assay: Growth inhibition of human IGROV1 cells at 10 uM after 48 hrs by sulforhodamine B assay
[40] = tested on: SK-MEL-28; assay: Growth inhibition of human SK-MEL-28 cells at 10 uM after 48 hrs by sulforhodamine B assay
[41] = tested on: RXF 393; assay: Growth inhibition of human RXF393 cells at 10 uM after 48 hrs by sulforhodamine B assay
[42] = tested on: COLO 205; assay: Growth inhibition of human COLO205 cells at 10 uM after 48 hrs by sulforhodamine B assay
[43] = tested on: SN12C; assay: Growth inhibition of human SN12C cells at 10 uM after 48 hrs by sulforhodamine B assay
[44] = tested on: DU-145; assay: Growth inhibition of human DU145 cells at 10 uM after 48 hrs by sulforhodamine B assay
[45] = tested on: NCI-H522; assay: Growth inhibition of human NCI-H522 cells at 10 uM after 48 hrs by sulforhodamine B assay
[46] = tested on: SK-MEL-2; assay: Growth inhibition of human SK-MEL-2 cells at 10 uM after 48 hrs by sulforhodamine B assay
[47] = tested on: SNB-75; assay: Growth inhibition of human SNB75 cells at 10 uM after 48 hrs by sulforhodamine B assay
[48] = tested on: SF-268; assay: Growth inhibition of human SF268 cells at 10 uM after 48 hrs by sulforhodamine B assay
[49] = tested on: OVCAR-3; assay: Growth inhibition of human OVCAR3 cells at 10 uM after 48 hrs by sulforhodamine B assay
[50] = tested on: SR; assay: Growth inhibition of human SR cells at 10 uM after 48 hrs by sulforhodamine B assay
[51] = tested on: KM12; assay: Growth inhibition of human KM12 cells at 10 uM after 48 hrs by sulforhodamine B assay
[52] = tested on: HOP-92; assay: Growth inhibition of human HOP92 cells at 10 uM after 48 hrs by sulforhodamine B assay
[53] = tested on: HCC 2998; assay: Growth inhibition of human HCC2998 cells at 10 uM after 48 hrs by sulforhodamine B assay
[54] = tested on: RPMI-8226; assay: Growth inhibition of human RPMI8226 cells at 10 uM after 48 hrs by sulforhodamine B assay
[55] = tested on: A549; assay: Growth inhibition of human A549/ATCC cells at 10 uM after 48 hrs by sulforhodamine B assay
[56] = tested on: UO-31; assay: Growth inhibition of human UO31 cells at 10 uM after 48 hrs by sulforhodamine B assay
[57] = tested on: M14; assay: Growth inhibition of human M14 cells at 10 uM after 48 hrs by sulforhodamine B assay
[58] = tested on: UACC-62; assay: Growth inhibition of human UACC62 cells at 10 uM after 48 hrs by sulforhodamine B assay
[59] = tested on: A498; assay: Growth inhibition of human A498 cells at 10 uM after 48 hrs by sulforhodamine B assay

Measured: growth inhibition (GI)

O=C1/C(=C\c2cccn2C(=O)c2ccc(Cl)cc2)c2ccccc2N1c1c(Cl)cccc1Cl
inactive: all assays above
